We go through 2 molecules from patent US9375013B2, “Herbicidal composition” (ISHIHARA SANGYO KAISHA, LTD., priority 2013, dated 2016).

What all share (type): in vivo
For assay [1], the system named is field bindweed (Convolvulus arvensis L.). Briefly: Test Example 15: pot soil treatment, growth inhibition of field bindweed. Particulars: 21st day after treatment, read-out: Growth inhibition rate (%) of field bindweed, Measured value. The source says:
(§1) On the 14th day after treatment, the state of growth of the summergrass was visually observed to determine the growth inhibition rate in accordance with the following evaluation standard. The growth inhibition rate (%) (measured value) and the growth inhibition rate (%) (calculated value) calculated by the Colby's formula are shown in Table 1. Growth inhibition rate (%)=0 (equivalent to the non-treated area) to 100 (complete kill) Upland field soil was put into a 1/160,000 ha pot, and seeds of field bindweed (Convolvulus arvensis L.) were sown. On the next day, predetermined amounts of flazasulfuron, mesotrione and imazapic were diluted with water (in an amount corresponding to 300 L/ha), and applied for soil treatment by a small sprayer. On the 21st day after treatment, the state of growth of the field bindweed was visually observed to determine the growth inhibition rate. The growth inhibition rate (%) (measured value) and the growth inhibition rate (%) calculated in the same manner as in Test Example 1 are shown in Table 15.

Assay [2] concerns wild oat (Avena fatua L.). Briefly: Test Example 3: pot soil treatment, growth inhibition of wild oat. Particulars: 22nd day after treatment, read-out: Growth inhibition rate (%) of wild oat, Measured value.
Excerpt: as §1, with “wild oat (Avena fatua” for “field bindweed (Convolvulus arvensis”, “22nd” for “21st”, “wild oat” for “field bindweed”, “3.” for “15.”

For assay [3], the system named is persian speedwell (Veronica persica Poir.). Nature of the assay: Test Example 8: pot soil treatment, growth inhibition of persian speedwell. Particulars: 21st day after treatment, read-out: Growth inhibition rate (%) of persian speedwell, Measured value.
In assay [4] the test system is common lespedeza (Lespedeza striata (Thunb.) Hook. et Arn.). Nature of the assay: Test Example 12: pot soil treatment, growth inhibition of common lespedeza. Conditions: Kummerowia striata, dose 50 g/ha, 21st day after treatment, read-out: Growth inhibition rate (%) of common lespedeza, Measured value.
Excerpt: as §1, with “common lespedeza (Lespedeza striata (Thunb.) Hook. et Arn.)” for “field bindweed (Convolvulus arvensis L.)”, “flazasulfuron” for “flazasulfuron, mesotrione”, “common lespedeza” for “field bindweed”, “12.” for “15.”

Assay [5] concerns summergrass (Digitaria ciliaris (Retz.) Koeler). Nature of the assay: Test Example 1: pot soil treatment, growth inhibition of summergrass. Conditions: dose 150 g/ha, 14th day after treatment, read-out: Growth inhibition rate (%) of summergrass, Measured value. How it is done: Upland field soil was put into a 1/160,000 ha pot, and seeds of summergrass (Digitaria ciliaris (Retz.) Koeler) were sown. On the next day, predetermined amounts of flazasulfuron and imazapic were diluted with water (in an amount corresponding to 300 L/ha), and applied for soil treatment by a small sprayer. On the 14th day after treatment, the state of growth of the summergrass was visually observed to determine the growth inhibition rate in accordance with the following evaluation standard. The growth inhibition rate (%) (measured value) and the growth inhibition rate (%) (calculated value) calculated by the Colby's formula are shown in Table 1. Growth inhibition rate (%)=0 (equivalent to the non-treated area) to 100 (complete kill)

Assay [6] concerns velvetleaf (Abutilon theophrasti MEDIC.). Briefly: Test Example 13: pot soil treatment, growth inhibition of velvetleaf. Conditions: dose 50 g/ha, 21st day after treatment, read-out: Growth inhibition rate (%) of velvetleaf, Measured value.
Assay [7] has as its system common ragweed (Ambrosia artemisiifolia L.). Nature of the assay: Test Example 11: pot soil treatment, growth inhibition of common ragweed. Particulars: dose 150 g/ha, 21st day after treatment, read-out: Growth inhibition rate (%) of common ragweed, Measured value.
Excerpt: as §1, with “common ragweed (Ambrosia artemisiifolia” for “field bindweed (Convolvulus arvensis”, “flazasulfuron” for “flazasulfuron, mesotrione”, “common ragweed” for “field bindweed”, “11.” for “15.”

The subject of assay [8] is guinea grass (Panicum maximum Jacq.). Briefly: Test Example 4: pot soil treatment, growth inhibition of guinea grass. Particulars: Megathyrsus maximus, dose 200 g/ha, 22nd day after treatment, read-out: Growth inhibition rate (%) of guinea grass, Measured value.
Excerpt: as §1, with “guinea grass (Panicum maximum Jacq.)” for “field bindweed (Convolvulus arvensis L.)”, “flazasulfuron and” for “flazasulfuron,”, “mesotrione” for “mesotrione and imazapic”, “22nd” for “21st”, “guinea grass” for “field bindweed”, “4.” for “15.”

In assay [9] the test system is rostrate sesbania(Sesbania rostrata Bremek. & Oberm.). Nature of the assay: Test Example 7: pot soil treatment, growth inhibition of rostrate sesbania. Particulars: 22nd day after treatment, read-out: Growth inhibition rate (%) of rostrate sesbania, Measured value.

The term inhibition denotes how much of the control response was suppressed.

Take `Cc1cnc(C2=NC(=O)C(C)(C(C)C)N2)c(C(=O)O)c1` (stereo not shown) [Imazapic, imazapic]: the inhibition at 150 g/ha in assay [1] (dose 150 g/ha) was found to be 15%; in assay [2] (dose 150 g/ha), 60%; in assay [5], 50%; in [7], 60%. Further, the inhibition at 100 g/ha in [2] (dose 100 g/ha) worked out at 40%. In addition, the inhibition at 50 g/ha in assay [3] worked out at 50%; in assay [4] it was 0%; in [6], 30%.

With `CS(=O)(=O)c1ccc(C(=O)C2C(=O)CCCC2=O)c([N+](=O)[O-])c1` [Mesotrione, mesotrione], the values for the inhibition at 200 g/ha in assay [8], in [1] (dose 200 g/ha) and in [2] (dose 200 g/ha) were 0%, 60% and 0%, respectively. The inhibition at 50 g/ha in assay [9] is 15%; in assay [2] (dose 50 g/ha), 40%.
